Bridge positions count the residues as written; N and C are the ends. Square brackets hold non-standard residues; d marks the D form. Ends that are not written are not given here. Peptide text beside a SMILES is read from it. Met(O) = CS(=O)CC[C@H](N)C(=O)O
molecular target: human platelet aggregation (Homo sapiens, UniProt P05106+P08514); assay: Platelet aggregation assay for synthetic echistatin and analogs (chronolog aggregometer); assay type: cell-based; details: human platelet aggregation; Table 5; read-out: IC₅₀(µM)(95% CONFIDENCE LIMITS)
Procedure: Platelet aggregation was measured at 37°C in a chronolog aggregometer. The reaction mixture contained washed platelets (2 x 10⁸/ml), fibrinogen ([…]), Ca²⁺ (1 mM), and the platelet aggregation inhibitor fraction to be tested The aggregation was initiated by adding […] ADP 1 min after the other components had been added. The reaction was allowed to proceed for at least 2 min. The extent of inhibition of aggregation was expressed as the percentage of the rate of aggregation observed in the absence of inhibitor. […]
The concentration of peptide necessary to inhibit the rate of human platelet aggregation by 50% (IC₅₀) was determined using platelets from 2-4 donors. Determinations were performed in duplicate for each donor.

Sequence of human platelet aggregation (P08514 32-1039): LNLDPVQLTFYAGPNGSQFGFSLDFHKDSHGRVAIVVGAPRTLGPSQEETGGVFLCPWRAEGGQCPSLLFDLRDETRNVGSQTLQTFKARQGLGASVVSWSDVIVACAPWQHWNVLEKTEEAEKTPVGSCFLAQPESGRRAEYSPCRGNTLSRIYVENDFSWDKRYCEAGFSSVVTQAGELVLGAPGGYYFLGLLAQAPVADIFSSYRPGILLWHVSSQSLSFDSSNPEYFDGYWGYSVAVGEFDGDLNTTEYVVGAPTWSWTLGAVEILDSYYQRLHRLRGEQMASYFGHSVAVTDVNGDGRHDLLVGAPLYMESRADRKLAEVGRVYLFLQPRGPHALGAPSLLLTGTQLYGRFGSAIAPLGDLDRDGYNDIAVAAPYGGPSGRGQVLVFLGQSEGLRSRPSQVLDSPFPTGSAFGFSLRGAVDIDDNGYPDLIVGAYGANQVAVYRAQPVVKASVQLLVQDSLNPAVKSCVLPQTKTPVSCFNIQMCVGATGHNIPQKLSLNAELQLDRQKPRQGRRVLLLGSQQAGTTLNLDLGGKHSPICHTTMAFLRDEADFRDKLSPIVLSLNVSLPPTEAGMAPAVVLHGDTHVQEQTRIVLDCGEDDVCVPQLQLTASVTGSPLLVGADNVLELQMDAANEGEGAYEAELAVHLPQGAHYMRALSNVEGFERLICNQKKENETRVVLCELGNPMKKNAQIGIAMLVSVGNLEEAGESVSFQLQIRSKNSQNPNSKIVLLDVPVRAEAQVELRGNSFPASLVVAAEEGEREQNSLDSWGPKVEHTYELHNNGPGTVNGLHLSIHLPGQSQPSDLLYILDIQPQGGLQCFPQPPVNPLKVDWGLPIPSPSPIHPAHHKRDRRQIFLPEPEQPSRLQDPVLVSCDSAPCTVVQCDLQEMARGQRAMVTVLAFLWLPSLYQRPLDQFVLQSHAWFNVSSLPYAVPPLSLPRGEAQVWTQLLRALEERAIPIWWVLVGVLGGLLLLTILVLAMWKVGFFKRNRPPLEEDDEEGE
Sequence of human platelet aggregation (P05106 27-788): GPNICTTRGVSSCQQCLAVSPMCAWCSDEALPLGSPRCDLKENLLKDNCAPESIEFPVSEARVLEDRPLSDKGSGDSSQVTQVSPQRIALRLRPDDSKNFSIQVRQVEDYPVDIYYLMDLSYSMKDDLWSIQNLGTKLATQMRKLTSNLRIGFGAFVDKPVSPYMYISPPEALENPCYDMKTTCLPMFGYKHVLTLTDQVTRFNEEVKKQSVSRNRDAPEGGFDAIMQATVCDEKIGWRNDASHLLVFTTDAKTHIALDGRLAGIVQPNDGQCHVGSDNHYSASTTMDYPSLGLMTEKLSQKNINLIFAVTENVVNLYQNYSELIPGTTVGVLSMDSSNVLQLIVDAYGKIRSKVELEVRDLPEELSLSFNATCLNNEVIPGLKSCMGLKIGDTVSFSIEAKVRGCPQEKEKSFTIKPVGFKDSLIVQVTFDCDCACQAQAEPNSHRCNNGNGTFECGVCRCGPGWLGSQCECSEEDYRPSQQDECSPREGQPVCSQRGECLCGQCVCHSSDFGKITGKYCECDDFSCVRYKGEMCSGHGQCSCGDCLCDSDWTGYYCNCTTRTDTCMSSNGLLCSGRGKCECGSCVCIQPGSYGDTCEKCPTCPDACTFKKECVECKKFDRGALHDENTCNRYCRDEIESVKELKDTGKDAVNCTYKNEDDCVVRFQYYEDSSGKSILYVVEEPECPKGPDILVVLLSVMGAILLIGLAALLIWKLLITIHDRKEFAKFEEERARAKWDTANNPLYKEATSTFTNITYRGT

Going from “ECESGPCCRNCKFLKEGTICKRARGDD[Met(O)]DDYCNGKTCDCPRNPHKGPAT (disulfide 2-11, 7-32, 8-37, 20-39) [Example 18, met SO 28-echistatin]” to “H-ECESGPCCRNCKFLKEGTICKNARGDFLDDYCNGKTCDCPRNPHKGPAT-OH (disulfide 2-11, 7-32, 8-37, 20-39) [Example 15, asn 22, phe 27, leu 28-echistatin]”, the IC50 falls from 0.088 µM to 0.038 µM (2.3-fold). The second is the more potent here.

First: H-ECESGPCCRNCKFLKEGTICKRPRGDFLDDYCNGKTCDCPRNPHKGPAT-OH (disulfide 2-11, 7-32, 8-37, 20-39) [Example 12, pro 23, phe 27, leu 28-echistatin]
Second: H-ECESGPCCRNCKFLKEGTICKRARGDDMDDYCNGKTCDCPRNP-NH2 (disulfide 2-11, 7-32, 8-37, 20-39) [Example 17, (1-43)-echistatin amide]
The IC50 of the first is 3.1-fold lower: 0.026 µM for the first, 0.081 µM for the second. The first is the more potent here.

Going from “H-ECESGPCCRNCKFLKEGTICKRARGDWMDDYCNGKTCDCPRNPHKGPAT-OH (disulfide 2-11, 7-32, 8-37, 20-39) [Example 11, trp 27-echistatin]” to “H-ECESGPCCRNCKFLKEGTICKRARGDDMDDYCNGKTCDCPR-NH2 (disulfide 2-11, 7-32, 8-37, 20-39) [Example 16, (1-41)-echistatin amide]”, the IC50 rises from 0.017 µM to 0.066 µM (3.9-fold).

Going from “H-ECESGPCCRNCKFLKEGTICKRARGDFMDDYCNGKTCDCPRNPHKGPAT-OH (disulfide 2-11, 7-32, 8-37, 20-39) [Example 9, phe 27-echistatin]” to `CC[C@H](C)[C@@H]1NC(=O)[C@H]([C@@H](C)O)NC(=O)CNC(=O)[C@H](CCC(=O)O)NC(=O)[C@H](CCCCN)NC(=O)[C@H](CC(C)C)NC(=O)[C@H](Cc2ccccc2)NC(=O)[C@H](CCCCN)NC(=O)[C@@H]2CSSC[C@H](NC(=O)[C@@H](N)CCC(=O)O)C(=O)N[C@@H](CCC(=O)O)C(=O)N[C@@H](CO)C(=O)NCC(=O)N3CCC[C@H]3C(=O)N[C@H]3CSSC[C@@H]4NC(=O)[C@H](Cc5ccc(O)cc5)NC(=O)[C@H](CC(=O)O)NC(=O)[C@H](CC(=O)O)NC(=O)[C@H](CCSC)NC(=O)[C@H](CC(=O)O)NC(=O)[C@H](CC(=O)O)NC(=O)CNC(=O)[C@H](CCCNC(=N)N)NC(=O)[C@H](C)NC(=O)[C@H](CCCNC(=N)N)NC(=O)[C@H](CCCCN)NC(=O)[C@H](CSSC[C@@H](C(N)=O)NC(=O)[C@H](CC(=O)O)NC(=O)[C@H](CSSC[C@H](NC3=O)C(=O)N[C@@H](CCCNC(=N)N)C(=O)N[C@@H](CC(N)=O)C(=O)N2)NC(=O)[C@H]([C@@H](C)O)NC(=O)[C@H](CCCCN)NC(=O)CNC(=O)[C@H](CC(N)=O)NC4=O)NC1=O` [Example 19, (1-39)-echistatin amide] (H-ECESGPCCRNCKFLKEGTICKRARGDDMDDYCNGKTCDC-NH2; disulfide 2-11, 7-32, 8-37, 20-39), the IC50 rises from 0.013 µM to 0.327 µM (25-fold). The first is the more potent here.

Compared with `CC[C@H](C)[C@@H]1NC(=O)[C@H]([C@@H](C)O)NC(=O)CNC(=O)[C@H](CCC(=O)O)NC(=O)[C@H](CCCCN)NC(=O)[C@H](CC(C)C)NC(=O)[C@H](Cc2ccccc2)NC(=O)[C@H](CCCCN)NC(=O)[C@@H]2CSSC[C@H](NC(=O)[C@@H](N)CCC(=O)O)C(=O)N[C@@H](CCC(=O)O)C(=O)N[C@@H](CO)C(=O)NCC(=O)N3CCC[C@H]3C(=O)N[C@H]3CSSC[C@@H]4NC(=O)[C@H](Cc5ccc(O)cc5)NC(=O)[C@H](CC(=O)O)NC(=O)[C@H](CC(=O)O)NC(=O)[C@H](CCSC)NC(=O)[C@H](CC(=O)O)NC(=O)[C@H](CC(=O)O)NC(=O)CNC(=O)[C@H](CCCNC(=N)N)NC(=O)[C@H](C)NC(=O)[C@H](CCCNC(=N)N)NC(=O)[C@H](CCCCN)NC(=O)[C@H](CSSC[C@@H](C(=O)O)NC(=O)[C@H](CC(=O)O)NC(=O)[C@H](CSSC[C@H](NC3=O)C(=O)N[C@@H](CCCNC(=N)N)C(=O)N[C@@H](CC(N)=O)C(=O)N2)NC(=O)[C@H]([C@@H](C)O)NC(=O)[C@H](CCCCN)NC(=O)CNC(=O)[C@H](CC(N)=O)NC4=O)NC1=O` [Example 20, (1-39)-echistatin] (H-ECESGPCCRNCKFLKEGTICKRARGDDMDDYCNGKTCDC-OH; disulfide 2-11, 7-32, 8-37, 20-39), “H-ECESGPCCRNCKFLKEGTICKRARGDDFDDYCNGKTCDCPRNPHKGPAT-OH (disulfide 2-11, 7-32, 8-37, 20-39) [Example 14, phe 28-echistatin]” is 21-fold lower in IC50: 0.8 µM for the first, 0.038 µM for the second.

Going from “H-ECESGPCCRNCKFLKEGTICKRARGDFLDDYCNGKTCDCPRNPHKGPAT-OH (disulfide 2-11, 7-32, 8-37, 20-39) [Example 10, phe 27, leu 28-echistatin]” to `CC[C@H](C)[C@@H]1NC(=O)[C@H]([C@@H](C)O)NC(=O)CNC(=O)[C@H](CCC(=O)O)NC(=O)[C@H](CCCCN)NC(=O)[C@H](CC(C)C)NC(=O)[C@H](Cc2ccccc2)NC(=O)[C@H](CCCCN)NC(=O)[C@@H]2CSSC[C@H](NC(=O)[C@@H](N)CCC(=O)O)C(=O)N[C@@H](CCC(=O)O)C(=O)N[C@@H](CO)C(=O)NCC(=O)N3CCC[C@H]3C(=O)N[C@H]3CSSC[C@@H]4NC(=O)[C@H](Cc5ccc(O)cc5)NC(=O)[C@H](CC(=O)O)NC(=O)[C@H](CC(=O)O)NC(=O)[C@H](CC(C)C)NC(=O)[C@H](CC(=O)O)NC(=O)[C@H](CC(=O)O)NC(=O)CNC(=O)[C@H](CCCNC(=N)N)NC(=O)[C@H](C)NC(=O)[C@H](CCCNC(=N)N)NC(=O)[C@H](CCCCN)NC(=O)[C@H](CSSC[C@@H](C(=O)N5CCC[C@H]5C(=O)N[C@@H](CCCNC(=N)N)C(=O)N[C@@H](CC(N)=O)C(=O)N5CCC[C@H]5C(=O)N[C@@H](Cc5c[nH]cn5)C(=O)N[C@@H](CCCCN)C(=O)NCC(=O)N5CCC[C@H]5C(=O)N[C@@H](C)C(=O)N[C@H](C(=O)O)[C@@H](C)O)NC(=O)[C@H](CC(=O)O)NC(=O)[C@H](CSSC[C@H](NC3=O)C(=O)N[C@@H](CCCNC(=N)N)C(=O)N[C@@H](CC(N)=O)C(=O)N2)NC(=O)[C@H]([C@@H](C)O)NC(=O)[C@H](CCCCN)NC(=O)CNC(=O)[C@H](CC(N)=O)NC4=O)NC1=O` [Example 13, leu 28-echistatin], the IC50 rises from 0.016 µM to 0.034 µM (2.1-fold). The first is the more potent here.

same assay, conditions: rate of human platelet aggregation; platelets from 2-4 donors, duplicate; Table 4; read-out: IC₅₀(µM)(95% CONFIDENCE LIMITS)

Compound “H-ECESGPCCRNCKFLKEGTICKRARGDDMDDYCNGKTCDCPRNPHKGPAT-OH (disulfide 2-11, 7-32, 8-37, 20-39) [Synthetic Echistatin, echistatin]” has an IC50 of 0.033 µM.

Source: EP0338634B1, “Viper venom polypeptides and genetic expression” (Merck & Co., Inc., priority 1988, dated 1989)
